Laboratory results taken from a melting point compilation (Tetko et al.; mined from patent text by program, amines drawn as free bases though some values may be those of a salt).

Structure (SMILES)	melting point [°C]
Cc1ccc(C(=O)Nc2c(NC(=O)CN(C)C)ccc3c2C(=O)c2ccccc2C3=O)cc1	190 to 191
Nc1cc(=O)n(Cc2cccc(C(F)(F)F)c2)[nH]1	130
Cc1ccc2nc(-c3ccc(-c4ccccc4)cc3)c(O)c(C(=O)O)c2c1	236 to 238
CS(=O)(=O)c1cc([N+](=O)[O-])c(C(=O)O)cc1N(CCBr)CCBr	174 to 176
N#CCc1cc(CO)cs1	45 to 47
CC(C)(C)OC(=O)NCCCCCCCBr	48 to 49
O=C1COC(COc2ccccc2Cc2cccs2)CN1Cc1ccccc1 (stereo unspecified)	97 to 99
CN(C)CC(c1ccccc1)c1nnc2n1-c1ccc(Cl)cc1C(c1ccccc1)=NC2 (stereo unspecified)	168 to 170
Cc1cccc(NC(=O)NC2N=C(c3ccccc3F)c3ccccc3N(Cc3ncccc3C)C2=O)c1 (racemic)	216 to 217
COc1cccc2c(=O)n(C(C)(C)C(=O)OCC(=O)c3ccccc3)c(=O)[nH]c12	132 to 133
COC(=O)c1cccc(-c2cccc(Oc3cccc(Cl)c3Cl)n2)c1	105 to 106
C=C(C)c1cn(-c2c(Cl)cc(C(F)(F)F)cc2Cl)nc1C#N	63 to 64
Cc1c(CNCc2ccccc2)[nH]c(=O)c2c1ccc1nc(Nc3c(Cl)cccc3Cl)n(C)c12	231 to 234
CC(C)(COc1ccc(O)c(C(N)=O)c1)NCC(O)COc1ccccc1C#N (stereo unspecified)	125 to 126
CC1Cc2c(-n3nc(C#N)c(=O)[nH]c3=O)ccc(Cl)c2O1 (stereo unspecified)	244 to 245
Nc1nc(N)c(CCCc2cccc3ccccc23)c(N)n1	181 to 183
O=c1nc(-c2ccccn2)sc2ccc(Cl)cc12	269 to 270
NC(=O)c1ccccc1NC(=O)c1ccc(-n2nc(C(F)(F)F)cc2C(F)(F)F)cc1	195 to 196
Cc1cc(-c2cccnc2)cc2ccc(=O)[nH]c12	236
O=C(O)CC(CSc1nc2ccccc2s1)C(=O)O (stereo unspecified)	136 to 139
O=S(=O)(NC(CO)CO)c1ccc(Cl)s1	90 to 92
CCNc1nc2cccc(C(=O)O)c2n1Cc1ccc(-c2ccccc2-c2nnn[nH]2)cc1	240 to 242
CC(C)n1nc(C(Cl)C(=O)c2ccc(F)cc2)ccc1=O (stereo unspecified)	86.5 to 88
O=C(c1ccc(Cl)cc1)C(Cc1nc[nH]n1)c1ccc(Cl)cc1Cl (stereo unspecified)	109 to 111
CCOC(=O)c1cc2cc(OCCCOC)cc(N(C)S(=O)(=O)c3ccccn3)c2[nH]1	98 to 99

Structure (SMILES)	melting point [°C]
CON=Cc1ccc(-c2ccccc2NC(=O)c2c(C)nn(C)c2F)cc1	114 to 116
COc1ccc(CCn2cnc3oc(C)c(C)c3c2=N)cc1	125
O=C1OC(=O)c2cc3cccc([N+](=O)[O-])c3c3cccc1c23	246
CC(C)N(c1ccc(C#N)cc1[N+](=O)[O-])S(=O)(=O)c1ccc(Cl)cc1	168
CNc1ncn(-c2c(Cl)cccc2Cl)c(=O)n1	270
COc1ccc(CC(=O)NOCc2ccccc2)cc1	98 to 99
COc1cc(C(C)C)c2c(c1)S(=O)(=O)N(COP(=O)(OCc1ccccc1)OCc1ccccc1)C2=O	75.5 to 76.5
CN1CC(CCCl)Oc2c(ccc3ccccc23)C1=S (stereo unspecified)	167 to 170
Cc1nccn1-c1cccc(OS(N)(=O)=O)c1	197 to 200
CC(C)(C)c1ccc2c(c1)C([Si](C)(C)C)c1cc(C(C)(C)C)ccc1-2	144 to 146
CCN(CCc1ccccc1OCc1ccccc1)c1ccc(C(=O)O)cc1	175
CN1CC(CN2CC(=O)NC2=O)CC2c3cccc4c3c(cn4C)CC21 (stereo unspecified)	292 to 294
Nc1ncnc2c1c(-c1cc(F)c(O)c(F)c1)nn2Cc1oc2ccc(F)cc2c(=O)c1-c1cccc(F)c1	274 to 278
CCC[C@H](NC(=O)Cc1cc(F)cc(F)c1)C(=O)Nc1ncc(-c2ccc(OC)cc2COC(C)C)s1	73.9
C[C@@H](N(CCOCc1ccccc1)C(=O)c1ccc(OCC(F)(F)C(F)F)cc1)[C@](O)(Cn1cncn1)c1ccc(Cl)cc1Cl (relative stereo)	51 to 62
CN(C)c1ccc(OCc2ccncc2)cc1	123 to 125
NS(=O)(=O)c1cc(C(=O)O)cc(NCc2ccccc2)c1Oc1ccccc1	264 to 265
Cc1c(CC(=O)O)c2cc(OCc3ccccn3)ccc2n1Cc1ccc(Cl)cc1	231 to 233
Cc1ccc(S(=O)c2cccc(-c3nc(=O)c4ccccc4s3)n2)cc1 (stereo unspecified)	228
CC1=C(c2ccc(C#N)c3ccccc23)CCC1O (stereo unspecified)	113 to 114
CCCCCCCCCCCCP(=O)(O)CCCNC(=O)OCc1ccccc1	115 to 116
O=CNNc1ccc(NC(=S)NCc2ccccc2)cc1	152 to 154
COc1ccc(-c2ccc(NC(=O)OC(C)(C)C)cc2)cc1	142 to 147
O=C(O)c1cc(OCc2ccccc2)cc([N+](=O)[O-])c1	157 to 158
CCc1nc(-c2ccc(OCCCn3ccnc3)cc2)no1	74 to 75.5

Results, then the molecule that gave them:

melting point [°C]	Structure (SMILES)
187 to 188	CN1CCN(c2cccc3c2C[C@H](NC(=O)c2csc(-c4ccncc4)n2)CC3)CC1
194 to 195	Cc1cc(C)c2c(c1)C=C(C(=O)O)CC2
163 to 164	CN(C(CCn1c(=O)cc(C(F)(F)F)[nH]c1=O)C(=O)NO)S(=O)(=O)c1ccc(Oc2ccc(F)cc2)cc1 (stereo unspecified)
119 to 121	COc1ccc2nc(OC)cc(CCNC(C)=O)c2c1
171	CC(=O)Nc1ccc2c(c1)OCc1cc([N+](=O)[O-])ccc1C2=O
104 to 106	CNC(=C[N+](=O)[O-])NCCCCc1ccc(CN(C)C)s1
164 to 165	CC1CCNC(=C2C(=O)CC(C)(C)CC2=O)N1 (stereo unspecified)
79	CCOC(=O)c1c(Cl)nc2cscc2c1Cl
53 to 55	CCOC(=O)C1CN(C(C)=O)CCC1=O (stereo unspecified)
180 to 181	COc1cc2cnnc(N3CCC(=O)CC3)c2cc1OC
66 to 67	O=c1c2c(oc3ccccc13)O2
94 to 96	COc1ccccc1C(=O)c1ccc(OC)c(Cl)c1Cl
216 to 220	COC(=O)C1=Cc2cc(-c3ccc(N4CCOCC4)cc3)ccc2N(C(=O)OC)CC1
142 to 144	Cc1cccc(C)c1NC(=O)CCSc1cc(C(C)(C)C)c(O)c(C(C)(C)C)c1
240 to 241	CN1CCN(CC(=O)N2c3ccccc3C(=S)Nc3cccnc32)CC1
70	CCCN(Cc1ccc(C(=O)N2CCN(c3ccccc3)CC2)cc1)C1CCc2ncsc2C1 (stereo unspecified)
148 to 150	COC(=O)C1=C(C)NCC(C)(C(=O)OC)C1c1ccccc1C=C[Si](C)(C)C (stereo unspecified)
128 to 131	O=C(Nc1ccc(Cl)cc1)N(CCCN1CCC(Cc2ccccc2)CC1)c1ccc(Cl)c(Cl)c1
226 to 227	CC(C)n1nc(-c2sc(NC(=O)C3CC3)nc2-c2ccccc2)ccc1=O
234 to 235	CC(=O)Nc1n[nH]c(C(C)(C)C)c1Br
132 to 134	CCCC1CC(=O)C(C(=O)NS(=O)(=O)c2ccc(C)cc2)C(=O)C1 (stereo unspecified)
170	Oc1ccc2c(c1)CN(C1CC1)C2
133 to 135	Cc1cccc(Oc2cccc(C#CC(C)N(O)C(N)=O)c2)n1 (stereo unspecified)
212	CCc1cc(O)n2ncnc2n1
138 to 140	Clc1ccccc1-c1cccc2c1OC(CNCC1CC1)CO2 (stereo unspecified)
147	CN(C)S(=O)(=O)n1c(C(F)(F)F)nc2c(Br)cc(C(F)(F)F)cc21

melting point [°C]	Structure (SMILES)
54 to 55	CCOC(=O)c1c(-c2ccccc2)nc(Cl)n1C
170 to 175	CC12CCC3C(CC(O)C4(O)CC=CCC34C)C1CC=C2Br (stereo unspecified)
252 to 255	Cn1cc(C2=C(c3c4n(c5ccccc35)CC(O)CC4)C(=O)NC2=O)c2ccccc21 (stereo unspecified)
198 to 202	CC(=O)Nc1cccc(C(=O)Nc2cccc3cc(Br)cnc23)c1
304 to 306	O=C1CC(c2ccccc2O)=Nc2ccc(N3CCCC3)cc21
69 to 71	CCCCOc1ccc2c(c1)C(N(CCCO)S(C)(=O)=O)CC(C)(C)O2 (stereo unspecified)
113	CCCCOc1cc(/C=C(\OCC)C(=O)O)ccc1OCCc1ccc(OS(C)(=O)=O)c(Cl)c1
77 to 79	CC1(C)CCC(C)(C)c2cc(OCc3ccc(CN)cc3)ccc21
240 to 241	N=C(Nc1ccc([N+](=O)[O-])cc1)c1ccccc1
275 to 280	CCCn1cc2c(C3C(=O)Nc4ccc(C)cc43)nc(Cl)nc2n1 (stereo unspecified)
127 to 130	CC(OC(=O)NC1(C(=O)O)CC1)OC(=O)C(C)C (stereo unspecified)
170 to 171	CCC1CC(NC(C)=O)=NN1c1cccc(Cl)n1 (stereo unspecified)
119	CCCCc1oc2ccccc2c1C(=O)c1ccc(O)cc1
173 to 174	COc1cc(C=CNC(C)=O)ccc1OCC1CO1 (stereo unspecified)
> 300	CC1(C)C(=O)Nc2cc3[nH]c(-c4cnccn4)nc3cc21
90 to 90.4	CCOC(=O)c1oc2ccc([N+](=O)[O-])cc2c1OC
95 to 97	COC(=O)NCCc1cccc(C(=O)C=CN(C)C)c1
101	CC(NC(=S)NCc1ccc(C(C)(C)C)cc1)c1ccc(NS(C)(=O)=O)cc1 (stereo unspecified)
49 to 53	CC(C)[C@H](NC1CCCCC1)C(=O)NCCCC(c1ccc(F)cc1)c1ccc(F)cc1
226 to 227	CC(C)c1nc2cc(NC(=O)c3c(C(=O)N4CCC4)cnn3C)ccn2n1
244 to 246	Cc1[nH]c2ccccc2c1C[C@@H](N)C(=O)O
176 to 177	COc1ccc(N2CCN(Cc3cnc(Cc4ccc(OC)c(OC)c4)c4cc(OC)c(OC)cc34)CC2)cc1
116	COC(=O)[C@H]1[C@@H](NC(=O)COc2ccccc2)C(=O)N1Cc1ccc(OC)cc1OC (relative stereo)
134 to 136	CS(=O)c1ccc(C2=C(c3ccc(F)cc3)C(=O)C(C)(C)O2)cc1 (stereo unspecified)
120 to 121	COC(=O)c1ccccc1OCC(O)CN1CCN(c2ccccc2OC)CC1 (stereo unspecified)
